The values that follow come from ChEMBL document CHEMBL1153195 (Bioorg Med Chem Lett, 2010).

The target in one data set is Substance-P receptor (Homo sapiens, UniProt P25103). Nature of the data set: Displacement of [3H]substance P from human NK1 receptor expressed in CHO cells. The format is cell-based. A general note: Displacement assays read how much labelled ligand stays bound in the presence of the test substance.
The nature of data set [1]: AUC (0 to 8 hrs) in rat at 1 mg/kg, po. On the set-up: time < 8 hr, dose 1 mg/kg, route oral. The format is ADME, organism-based. The note with it: plasma.
Another data set relates to Gerbillinae. Nature of the data set: Anxiolytic-like activity in po or sc dosed gerbils assessed as inhibition of GR-73632-induced foot tapping administered 1 hr before GR-73632 challenge measured. The format is functional. The note with it: for ED50: read-out: ID50 (the source's name).
The nature of data set [2]: Cmax in rat at 1 mg/kg, po. On the set-up: dose 1 mg/kg, route oral. The note with it: in vivo. The format is ADME, organism-based.
Data set [3] can be described thus: Ratio of drug level in brain to plasma in rat at 1 mg/kg, po after 5 mins. The class given is ADME, organism-based. On the set-up: dose 1 mg/kg, route oral.

Sequence of Substance-P receptor (P25103 whole entry): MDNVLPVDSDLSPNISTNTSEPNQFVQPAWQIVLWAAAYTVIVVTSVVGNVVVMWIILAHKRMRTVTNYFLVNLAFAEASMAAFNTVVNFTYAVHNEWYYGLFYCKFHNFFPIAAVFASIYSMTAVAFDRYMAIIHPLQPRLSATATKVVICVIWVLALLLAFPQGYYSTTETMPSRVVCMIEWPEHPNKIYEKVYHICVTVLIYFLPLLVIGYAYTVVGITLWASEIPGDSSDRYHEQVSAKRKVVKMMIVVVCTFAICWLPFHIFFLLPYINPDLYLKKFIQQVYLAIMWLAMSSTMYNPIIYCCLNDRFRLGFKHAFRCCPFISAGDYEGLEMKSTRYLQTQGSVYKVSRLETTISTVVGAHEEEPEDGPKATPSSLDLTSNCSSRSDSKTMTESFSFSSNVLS

A word on the Ki: it is the equilibrium dissociation constant of an inhibitor or competing ligand from its target. Low readings indicate tighter binding, high ones weaker binding. As to `Cc1cc(F)ccc1C1CNCC2CN(Cc3cc(C(F)(F)F)cc(C(F)(F)F)c3)C(=O)N21` (stereo not given), the Ki on Substance-P receptor was 50.1 nM.
What is called AUC(0-t) is exposure summed from dosing to a finite time, without extrapolation to infinity. A higher AUC(0-t) goes with more exposure. For orientation: Cmax means the peak of the concentration-time curve. In data set [1], `Cc1cc(F)ccc1[C@H]1CNCCN1C(=O)N(C)C1(c2cc(C(F)(F)F)cc(C(F)(F)F)c2)CC1` registered an AUC(0-t) at 8 h of 108 ng·h/mL. Further, in the data set with Gerbillinae, the Activity entry is “Dose-dependent effect” and the ED50 was 0.2 mg/kg. In addition, the Ki at Substance-P receptor was 0.501 nM. This compound also displayed a Cmax in data set [2] of 29 ng/mL.
On Substance-P receptor, `Cc1cc(F)ccc1[C@H]1CNCCN1C(=O)N1CCCC1c1cc(C(F)(F)F)cc(C(F)(F)F)c1` (stereo in doubt; 2a) gave a Ki of 63.1 nM.
In the case of `Cc1cc(F)ccc1[C@H]1CNCCN1C(=O)N1CCCC1c1cc(C(F)(F)F)cc(C(F)(F)F)c1` (stereo in doubt; 2b), the Ki at Substance-P receptor is 6.31 nM.
For `Cc1cc(F)ccc1[C@H]1CNCCN1C(=O)N1CCC=CC1c1cc(C(F)(F)F)cc(C(F)(F)F)c1` (stereo in doubt; 3a), at Substance-P receptor, the Ki is 20 nM.
As for `Cc1cc(F)ccc1[C@H]1CNCCN1C(=O)N1CCC=CC1c1cc(C(F)(F)F)cc(C(F)(F)F)c1` (stereo in doubt; 3b), the Ki on Substance-P receptor is 0.501 nM.
Compound `Cc1cc(F)ccc1[C@H]1CNCCN1C(=O)N1CCCCC1c1cc(C(F)(F)F)cc(C(F)(F)F)c1` (stereo in doubt; 4a) gave a Ki at Substance-P receptor of 31.6 nM.
The same measure, in the same setting: as for `Cc1cc(F)ccc1[C@H]1CNCCN1C(=O)N1CCCCC1c1cc(C(F)(F)F)cc(C(F)(F)F)c1` (stereo in doubt; 4b), the figure is 1.26 nM; as for `Cc1cc(F)ccc1[C@H]1CNCCN1C(=O)N1CCNCC1c1cc(C(F)(F)F)cc(C(F)(F)F)c1` (stereo in doubt; 5a), 100 nM.
Broadly, the Kp is the ratio of the level in a tissue or fluid to that in plasma or blood. In data set [1], `Cc1cc(F)ccc1[C@H]1CNCCN1C(=O)N1CCNCC1c1cc(C(F)(F)F)cc(C(F)(F)F)c1` (stereo in doubt; 5b) [listing 1 of 2 here] had an AUC(0-t) at 8 h of 145 ng·h/mL. The Kp at 5 min in data set [3] was 0.9. Besides, the ED50 in the data set with Gerbillinae was determined as 0.4 mg/kg. The compound further gave a Ki on Substance-P receptor of 0.794 nM. In data set [2], this compound displayed a Cmax of 32 ng/mL.
With `Cc1cc(F)ccc1[C@H]1CNCCN1C(=O)N1CCNCC1c1cc(C(F)(F)F)cc(C(F)(F)F)c1` (stereo in doubt; 5b) [listing 2 of 2 here], the Activity result in the data set on Gerbillinae was “Dose-dependent effect”.
On to `Cc1cc(F)ccc1[C@H]1CNCCN1C(=O)N(C)[C@H](C)c1cc(C(F)(F)F)cc(C(F)(F)F)c1` [VESTIPITANT], for which the ED50 in the data set with Gerbillinae was found to be 0.014 mg/kg.
